Assay results: the NIST ThermoML archive (doi:10.1016/j.jct.2006.07.017)
± gives the expanded uncertainty stated by the source.

How the values were obtained:
[1] = 298.15 K; 101.33 kPa; Liquid
[2] = refractive index (Na D-line) (dimensionless); conditions: 298.15 K; 101.33 kPa; Liquid; Standard Abbe refractometry
[3] = xn = mol fraction of the nth substance listed; conditions: 101 kPa, Liquid

Cc1ccccc1C [1,2-dimethylbenzene]
mass density [1]: 875.73 ± 0.34 kg/m3
refractive index [2]: 1.5057 ± 0.0007

Cc1cccc(C)c1 [1,3-dimethylbenzene]
mass density [1]: 859.83 ± 1.6 kg/m3
refractive index [2]: 1.4973 ± 0.0008

Cc1ccc(C)cc1 [1,4-dimethylbenzene]
mass density [1]: 856.58 ± 0.85 kg/m3
refractive index [2]: 1.4958 ± 0.0008

Cc1ccc(C)cc1 [1,4-dimethylbenzene] + CN(C)C=O
mass density ([3]; 293.15 K, x1 = 0.0562): 941.87 ± 0.34 kg/m3
mass density ([3]; 293.15 K, x1 = 0.1211): 934.47 ± 0.37 kg/m3
mass density ([3]; 293.15 K, x1 = 0.1885): 927.18 ± 0.39 kg/m3
mass density ([3]; 293.15 K, x1 = 0.2532): 920.51 ± 0.41 kg/m3
mass density ([3]; 293.15 K, x1 = 0.3225): 913.72 ± 0.43 kg/m3
mass density ([3]; 293.15 K, x1 = 0.3865): 907.74 ± 0.46 kg/m3
mass density ([3]; 293.15 K, x1 = 0.4525): 901.85 ± 0.48 kg/m3
mass density ([3]; 293.15 K, x1 = 0.5121): 896.75 ± 0.5 kg/m3
mass density ([3]; 293.15 K, x1 = 0.5853): 890.75 ± 0.52 kg/m3
mass density ([3]; 293.15 K, x1 = 0.6441): 886.12 ± 0.54 kg/m3
mass density ([3]; 293.15 K, x1 = 0.7154): 880.72 ± 0.56 kg/m3
mass density ([3]; 293.15 K, x1 = 0.7664): 876.98 ± 0.58 kg/m3
mass density ([3]; 293.15 K, x1 = 0.8353): 872.08 ± 0.6 kg/m3
mass density ([3]; 293.15 K, x1 = 0.8901): 868.29 ± 0.62 kg/m3
mass density ([3]; 293.15 K, x1 = 0.9577): 863.74 ± 0.64 kg/m3
mass density ([3]; 303.15 K, x1 = 0.0625): 931.96 ± 0.37 kg/m3
mass density ([3]; 303.15 K, x1 = 0.1321): 924.04 ± 0.39 kg/m3
mass density ([3]; 303.15 K, x1 = 0.1912): 917.66 ± 0.41 kg/m3
mass density ([3]; 303.15 K, x1 = 0.2684): 909.75 ± 0.44 kg/m3
mass density ([3]; 303.15 K, x1 = 0.3325): 903.53 ± 0.46 kg/m3
mass density ([3]; 303.15 K, x1 = 0.3965): 897.61 ± 0.48 kg/m3
mass density ([3]; 303.15 K, x1 = 0.4584): 892.15 ± 0.5 kg/m3
mass density ([3]; 303.15 K, x1 = 0.5214): 886.82 ± 0.52 kg/m3
mass density ([3]; 303.15 K, x1 = 0.5853): 881.64 ± 0.54 kg/m3
mass density ([3]; 303.15 K, x1 = 0.6485): 876.73 ± 0.56 kg/m3
mass density ([3]; 303.15 K, x1 = 0.7112): 872.04 ± 0.58 kg/m3
mass density ([3]; 303.15 K, x1 = 0.7866): 866.61 ± 0.61 kg/m3
mass density ([3]; 303.15 K, x1 = 0.8415): 862.79 ± 0.62 kg/m3
mass density ([3]; 303.15 K, x1 = 0.9054): 858.48 ± 0.65 kg/m3
mass density ([3]; 303.15 K, x1 = 0.9658): 854.51 ± 0.67 kg/m3
mass density ([3]; 313.15 K, x1 = 0.0455): 924.59 ± 0.38 kg/m3
mass density ([3]; 313.15 K, x1 = 0.1112): 916.97 ± 0.4 kg/m3
mass density ([3]; 313.15 K, x1 = 0.1862): 908.77 ± 0.43 kg/m3
mass density ([3]; 313.15 K, x1 = 0.2562): 901.56 ± 0.45 kg/m3
mass density ([3]; 313.15 K, x1 = 0.3215): 895.19 ± 0.48 kg/m3
mass density ([3]; 313.15 K, x1 = 0.3952): 888.37 ± 0.5 kg/m3
mass density ([3]; 313.15 K, x1 = 0.4514): 883.43 ± 0.52 kg/m3
mass density ([3]; 313.15 K, x1 = 0.5111): 878.4 ± 0.54 kg/m3
mass density ([3]; 313.15 K, x1 = 0.5841): 872.52 ± 0.56 kg/m3
mass density ([3]; 313.15 K, x1 = 0.6451): 867.83 ± 0.58 kg/m3
mass density ([3]; 313.15 K, x1 = 0.7124): 862.86 ± 0.6 kg/m3
mass density ([3]; 313.15 K, x1 = 0.7854): 857.69 ± 0.62 kg/m3
mass density ([3]; 313.15 K, x1 = 0.8451): 853.61 ± 0.64 kg/m3
mass density ([3]; 313.15 K, x1 = 0.9011): 849.9 ± 0.66 kg/m3
mass density ([3]; 313.15 K, x1 = 0.9655): 845.75 ± 0.68 kg/m3

CN(C)C=O [dimethylformamide]
mass density [1]: 943.85 ± 0.23 kg/m3
refractive index [2]: 1.4307 ± 0.0007
